The target of the first test is Human Factor D (Homo sapiens (Human), UniProt P00746). Kind of test: Human Factor D Assay. The test is classed as biochemical. Particulars: Factor D inhibition, assay of Example 10; read-out: IC5 (Stars). In outline:
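Thioester substrate Z-L-Lys-SBz (100 μM) with Ellman's reagent DTNB (100 μM) reports activity of 80 nM human serum-derived enzyme, kinetically at 405 nm over 30 min. Compound preincubated 5 min, room temperature, pH 7.5 Tris/1 M NaCl; IC50 by nonlinear fit of rates.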
Sequence of Human Factor D (P00746 26-253): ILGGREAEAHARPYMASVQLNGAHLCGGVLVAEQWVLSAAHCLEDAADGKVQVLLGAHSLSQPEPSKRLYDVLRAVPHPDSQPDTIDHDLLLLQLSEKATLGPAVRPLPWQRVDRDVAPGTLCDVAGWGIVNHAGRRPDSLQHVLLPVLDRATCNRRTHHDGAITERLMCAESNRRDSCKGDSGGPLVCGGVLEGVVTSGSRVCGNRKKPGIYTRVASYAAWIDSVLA
As to `CC(=O)c1nn(CC(=O)N2[C@H](C(=O)Nc3cc(C(C)C)cc(Br)n3)C[C@@]3(C)C[C@@H]23)c2ccc(-c3cnc(C)nc3)cc12` [Compound 541, (1R,3S,5R)-2-(2-(3-acetyl-5-(2-methylpyrimidin-5-yl)-1H-indazol-1-yl)acetyl)-N-(6-bromo-4-isopropylpyridin-2-yl)-5-methyl-2-azabicyclo[3.1.0]hexane-3-carboxamide], the IC50 is below 1000 nM.
With `CC(=O)c1nn(CC(=O)N2[C@H](C(=O)Nc3cc(CC(C)C)cc(Br)n3)C[C@@]3(C)C[C@@H]23)c2ccc(-c3cnc(C)nc3)cc12` [Compound 542, (1R,3S,5R)-2-(2-(3-acetyl-5-(2-methylpyrimidin-5-yl)-1H-indazol-1-yl)acetyl)-N-(6-bromo-4-isobutylpyridin-2-yl)-5-methyl-2-azabicyclo[3.1.0]hexane-3-carboxamide], the IC50 was below 1000 nM.
Same read-out and setting: the result for `CC(=O)c1nn(CC(=O)N2[C@H](C(=O)Nc3cc(C#N)cc(Br)n3)C[C@@]3(C)C[C@@H]23)c2ccc(-c3cnc(C)nc3)cc12` [Compound 543, (1R,3S,5R)-2-(2-(3-acetyl-5-(2-methylpyrimidin-5-yl)-1H-indazol-1-yl)acetyl)-N-(6-bromo-4-cyanopyridin-2-yl)-5-methyl-2-azabicyclo[3.1.0]hexane-3-carboxamide] reads below 1000 nM; that for `CC(=O)c1nn(CC(=O)N2[C@H](C(=O)Nc3cc(-c4nnn[nH]4)cc(Br)n3)C[C@@]3(C)C[C@@H]23)c2ccc(-c3cnc(C)nc3)cc12` [Compound 544, (1R,3S,5R)-2-(2-(3-acetyl-5-(2-methylpyrimidin-5-yl)-1H-indazol-1-yl)acetyl)-N-(6-bromo-4-(1H-tetrazol-5-yl)pyridin-2-yl)-5-methyl-2-azabicyclo[3.1.0]hexane-3-carboxamide], below 1000 nM; that for `CC(=O)c1nn(CC(=O)N2[C@H](C(=O)Nc3cc(CCC(C)C)cc(Br)n3)C[C@@]3(C)C[C@@H]23)c2ccc(-c3cnc(C)nc3)cc12` [Compound 545, (1R,3S,5R)-2-(2-(3-acetyl-5-(2-methylpyrimidin-5-yl)-1H-indazol-1-yl)acetyl)-N-(6-bromo-4-isopentylpyridin-2-yl)-5-methyl-2-azabicyclo[3.1.0]hexane-3-carboxamide], below 1000 nM.

Still in this test, the particulars now being: Table 8; Factor D 80 nM, substrate Z-L-Lys-SBz; read-out: IC50.
As for `CCCCCCCCCCCCCCCC(=O)NCCCC[C@H](NC(=O)[C@H](CCC(=O)O)NC(=O)[C@H](Cc1ccc(O)cc1)NC(=O)[C@H](CCC(=O)O)NC(C)=O)C(=O)N[C@@H](CCC(=O)O)C(=O)N[C@@H](Cc1ccc(O)cc1)C(=O)N[C@@H](CCC(=O)O)C(=O)NCCOCCOCCOCCOCCOCCOCCOCCOCCOCCOCCOCCOCCOCCOCCOCCOCCOCCOCCOCCOCCOCCOCCOCCOCCC(=O)NC[C@@]12C[C@@H](C(=O)Nc3nc(Br)ccc3C)N(C(=O)Cn3nc(C(C)=O)c4cc(-c5cnc(C)nc5)cc(C)c43)[C@@H]1C2` [Compound 535], the IC50 lay within 1000 to 10000 nM.
`CC(=O)c1nn(CC(=O)N2[C@H](C(=O)NCCCCc3ccccc3)C[C@@]3(C)C[C@@H]23)c2c(C)cc(-c3cnc(C)nc3)cc12` [Compound 538, (1R,3S,5R)-2-(2-(3-acetyl-7-methyl-5-(2-methylpyrimidin-5-yl)-1H-indazol-1-yl)acetyl)-5-methyl-N-(4-phenylbutyl)-2-azabicyclo[3.1.0]hexane-3-carboxamide]: the IC50 was below 1000 nM.
On the same count and under the same terms, with `CC(=O)c1nn(CC(=O)N2[C@H](C(=O)NCCCCCc3ccccc3)C[C@@]3(C)C[C@@H]23)c2c(C)cc(-c3cnc(C)nc3)cc12` [Compound 539, (1R,3S,5R)-2-(2-(3-acetyl-7-methyl-5-(2-methylpyrimidin-5-yl)-1H-indazol-1-yl)acetyl)-5-methyl-N-(5-phenylpentyl)-2-azabicyclo[3.1.0]hexane-3-carboxamide] the figure was below 1000 nM; with `CC(=O)c1nn(CC(=O)N2[C@H](C(=O)NCCCCCCc3ccccc3)C[C@@]3(C)C[C@@H]23)c2c(C)cc(-c3cnc(C)nc3)cc12` [Compound 540, (1R,3S,5R)-2-(2-(3-acetyl-7-methyl-5-(2-methylpyrimidin-5-yl)-1H-indazol-1-yl)acetyl)-5-methyl-N-(6-phenylhexyl)-2-azabicyclo[3.1.0]hexane-3-carboxamide], 1000 to 10000 nM.

These data come from US11084800B2 (Achillion Pharmaceuticals, Inc., priority 2017, dated 2021).
